Data published in patent publication US11434242B2, “Dopamine-b-hydroxylase inhibitors” (BIAL-PORTELA & Cª, S.A., priority 2017, dated 2022).
Marks after values point to notes of the source that are not given here.

Molecular target: T1, Dopamine beta hydroxylase (Homo sapiens, UniProt P09172)
T1 construct: 125 μl of plasma; tissue Instituto Português do Sangue Transplantação; host or cells: human plasma from healthy donors
T1 sequence (P09172 40-617 limits assumed): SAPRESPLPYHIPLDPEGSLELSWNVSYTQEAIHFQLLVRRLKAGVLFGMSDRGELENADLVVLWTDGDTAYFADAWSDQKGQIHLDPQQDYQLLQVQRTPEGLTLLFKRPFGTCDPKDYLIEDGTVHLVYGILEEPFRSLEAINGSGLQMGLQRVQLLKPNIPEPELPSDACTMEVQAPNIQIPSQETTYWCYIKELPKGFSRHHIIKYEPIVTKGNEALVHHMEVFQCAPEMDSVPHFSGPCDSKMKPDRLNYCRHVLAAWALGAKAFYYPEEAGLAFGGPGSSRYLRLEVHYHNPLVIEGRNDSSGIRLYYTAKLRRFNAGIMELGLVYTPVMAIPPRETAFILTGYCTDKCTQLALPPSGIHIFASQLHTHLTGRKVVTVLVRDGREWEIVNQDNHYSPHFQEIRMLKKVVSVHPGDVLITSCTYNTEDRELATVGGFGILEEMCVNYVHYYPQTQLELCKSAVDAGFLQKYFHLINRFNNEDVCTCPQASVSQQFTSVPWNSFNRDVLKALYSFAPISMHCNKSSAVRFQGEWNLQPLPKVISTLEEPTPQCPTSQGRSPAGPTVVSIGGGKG
Assay: Dopamine beta hydroxylase activity in human plasma
Type: biochemical
In short: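 Healthy-donor human plasma pre-incubated 10 min at 37° C with compound at final 10, 100 or 1000 nM in pH 5.0 acetate buffer with ascorbate, fumarate, pargyline, N-ethylmaleimide, catalase and copper sulfate. Tyramine substrate then added for 45 min; octopamine formed was isolated by SCX cartridge, periodate-converted and read at 330 nm; activity given as % control.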

Row | SMILES | Plasma (0.01 μM), activity in % of control (inhibitor 0.01 μM) | Plasma (0.1 μM), activity in % of control (inhibitor 0.1 μM) | Plasma (0.01 μM), activity in % of control, re-test (asterisked) (inhibitor 0.01 μM, re-tested under the same experimental conditions, asterisked data believed to be correct) | Plasma (0.1 μM), activity in % of control, re-test (asterisked) (inhibitor 0.1 μM, re-tested under the same experimental conditions, asterisked data believed to be correct)
1 | Fc1ccc(Br)c(F)c1[C@@H]1Cc2c(CCNC3CCC3)[nH]c(=S)n2C1 [Example 181, (S)-6-(3-bromo-2,6-difluorophenyl)-1-(2-(cyclobutylamino)ethyl)-2,5,6,7-tetrahydro-3H-pyrrolo[1,2-c]imidazole-3-thione] | 68.9 % of control | 18.3 % of control |  | 
2 | CS(=O)(=O)CCNCCc1[nH]c(=S)n2c1C[C@H](c1c(F)ccc(Br)c1F)C2 [Example 182, (R)-6-(3-bromo-2,6-difluorophenyl)-1-(2-((2-(methylsulfonyl)ethyl)amino)ethyl)-2,5,6,7-tetrahydro-3H-pyrrolo[1,2-c]imidazole-3-thione] | 94.6 % of control | 71.0 % of control |  | 
3 | CN(CCO)CCc1[nH]c(=S)n2c1C[C@H](c1c(F)ccc(Br)c1F)C2 [Example 183, (R)-6-(3-bromo-2,6-difluorophenyl)-1-(2-((2-hydroxyethyl)(methyl)amino)ethyl)-2,5,6,7-tetrahydro-3H-pyrrolo[1,2-c]imidazole-3-thione] | 92.2 % of control | 79.8 % of control |  | 
4 | C[C@@H](NCCc1[nH]c(=S)n2c1C[C@H](c1c(F)ccc(Br)c1F)C2)C1CCCCC1 [Example 184, (R)-6-(3-bromo-2,6-difluorophenyl)-1-(2-(((R)-1-cyclohexylethyl)amino)ethyl)-2,5,6,7-tetrahydro-3H-pyrrolo[1,2-c]imidazole-3-thione] | 89.2 % of control | 43.7 % of control |  | 
5 | Cl.Fc1ccc(Br)cc1[C@]12C[C@H]1c1c(CCN3CCCC3)[nH]c(=S)n1C2 [Example 185, (5aS,6aR)-5a-(5-bromo-2-fluorophenyl)-1-(2-(pyrrolidin-1-yl)ethyl)-5,5a,6,6a-tetrahydrocyclopropa[3,4]pyrrolo[1,2-c]imidazole-3(2H)-thione hydrochloride] | 72.9 % of control | 30.9 % of control |  | 
6 | Cl.Fc1ccc(Br)cc1[C@]12C[C@H]1c1c(CCNCC3CC3)[nH]c(=S)n1C2 [Example 186, (5aS,6aR)-5a-(5-bromo-2-fluorophenyl)-1-(2-((cyclopropylmethyl)amino)ethyl)-5,5a,6,6a-tetrahydrocyclopropa[3,4]pyrrolo[1,2-c]imidazole-3(2H)-thione hydrochloride] | 62.7 % of control | 18.0 % of control |  | 
7 | F.Fc1ccc(Br)cc1[C@]12C[C@H]1c1c(CCNC3CC3)[nH]c(=S)n1C2 [Example 187, (5aS,6aR)-5a-(5-bromo-2-fluorophenyl)-1-(2-(cyclopropylamino)ethyl)-5,5a,6,6a-tetrahydrocyclopropa[3,4]pyrrolo[1,2-c]imidazole-3(2H)-thione hydrofluoride] | 72.6 % of control | 21.6 % of control |  | 
8 | F.Fc1ccc(Br)cc1[C@]12C[C@H]1c1c(CCNC3CCC3)[nH]c(=S)n1C2 [Example 188, (5aS,6aR)-5a-(5-bromo-2-fluorophenyl)-1-(2-(cyclobutylamino)ethyl)-5,5a,6,6a-tetrahydrocyclopropa[3,4]pyrrolo[1,2-c]imidazole-3(2H)-thione hydrofluoride] | 60.9 % of control | 15.4 % of control |  | 
9 | F.Fc1ccc(Cl)cc1[C@]12C[C@H]1c1c(CCNCc3ccccc3)[nH]c(=S)n1C2 [Example 189, (5aS,6aR)-1-(2-(benzylamino)ethyl)-5a-(5-chloro-2-fluorophenyl)-5,5a,6,6a-tetrahydrocyclopropa[3,4]pyrrolo[1,2-c]imidazole-3(2H)-thione hydrofluoride] | 87.4 % of control | 23.2 % of control |  | 
10 | CN(CCc1[nH]c(=S)n2c1[C@@H]1C[C@]1(c1cc(Br)ccc1F)C2)C1CCCC1.F [Example 190, (5aS,6aR)-5a-(5-bromo-2-fluorophenyl)-1-(2-(cyclopentyl(methyl)amino)ethyl)-5,5a,6,6a-tetrahydrocyclopropa[3,4]pyrrolo[1,2-c]imidazole-3(2H)-thione hydrofluoride] | 68.6 % of control | 19.9 % of control |  | 
11 | F.Fc1ccc(Br)cc1[C@]12C[C@H]1c1c(CCNc3ccccn3)[nH]c(=S)n1C2 [Example 192, (5aS,6aR)-5a-(5-bromo-2-fluorophenyl)-1-(2-(pyridin-2-ylamino)ethyl)-5,5a,6,6a-tetrahydrocyclopropa[3,4]pyrrolo[1,2-c]imidazole-3(2H)-thione hydrofluoride] | 73.4 % of control | 12.1 % of control |  | 
12 | CNCCc1[nH]c(=S)n2c1C[C@@H](c1c(F)ccc(Cl)c1F)C2.Cl [Example 193, (S)-6-(3-chloro-2,6-difluorophenyl)-1-(2-(methylamino)ethyl)-2,5,6,7-tetrahydro-3H-pyrrolo[1,2-c]imidazole-3-thione Hydrochloride] | 86.0 % of control | 46.3 % of control |  | 
13 | F.Fc1ccc(Cl)cc1[C@]12C[C@H]1c1c(CCN3CCCCC3)[nH]c(=S)n1C2 [Example 194, (5aS,6aR)-5a-(5-chloro-2-fluorophenyl)-1-(2-(piperidin-1-yl)ethyl)-5,5a,6,6a-tetrahydrocyclopropa[3,4]pyrrolo[1,2-c]imidazole-3(2H)-thione Hydrofluoride] | 82.9 % of control | 62.4 % of control |  | 
14 | Cl.Fc1ccc(Cl)c(F)c1[C@@H]1Cc2c(CCN3CCOCC3)[nH]c(=S)n2C1 [Example 196, (S)-6-(3-chloro-2,6-difluorophenyl)-1-(2-morpholinoethyl)-2,5,6,7-tetrahydro-3H-pyrrolo[1,2-c]imidazole-3-thione Hydrochloride] | 102.2 % of control | 68.6 % of control |  | 
15 | Fc1ccc(Cl)cc1[C@]12C[C@H]1c1c(CCNc3cccnc3)[nH]c(=S)n1C2 [Example 197, (5aS,6aR)-5a-(5-chloro-2-fluorophenyl)-1-(2-(pyridin-3-ylamino)ethyl)-5,5a,6,6a-tetrahydrocyclopropa[3,4]pyrrolo[1,2-c]imidazole-3(2H)-thione] | 75.9 % of control | 29.4 % of control |  | 
16 | Cl.Fc1cc(F)c(F)c([C@H]2Cc3c(CCN4CCCC4)[nH]c(=S)n3C2)c1F [Example 198, (R)-1-(2-(pyrrolidin-1-yl)ethyl)-6-(2,3,5,6-tetrafluorophenyl)-2,5,6,7-tetrahydro-3H-pyrrolo[1,2-c]imidazole-3-thione Hydrochloride] | 52.2 % of control | 11.1 % of control | 84.5* % of control | 99.1* % of control
17 | CCOC(=O)C(Cc1[nH]c(=S)n2c1C[C@H](c1c(F)c(F)cc(F)c1F)C2)C(=O)OCC [Example 200, (R)-diethyl 2-((6-(2,3,5,6-tetrafluorophenyl)-3-thioxo-3,5,6,7-tetrahydro-2H-pyrrolo[1,2-c]imidazol-1-yl)methyl)malonate] | 85.2 % of control | 66.4 % of control |  | 
18 | O=C(O)C(Cc1[nH]c(=S)n2c1C[C@H](c1c(F)c(F)cc(F)c1F)C2)C(=O)O [Example 201, (R)-2-((6-(2,3,5,6-tetrafluorophenyl)-3-thioxo-2,5,6,7-tetrahydro-3H-pyrrolo[1,2-c]imidazol-1-yl)methyl)malonic Acid] | 62.4 % of control | 13.3 % of control |  | 
19 | O=C(O)CCc1[nH]c(=S)n2c1C[C@H](c1c(F)c(F)cc(F)c1F)C2 [Example 202, (R)-3-(6-(2,3,5,6-tetrafluorophenyl)-3-thioxo-2,5,6,7-tetrahydro-3H-pyrrolo[1,2-c]imidazol-1-yl)propanoic Acid] | 67.7 % of control | 22.7 % of control |  | 
20 | O=C(CCc1[nH]c(=S)n2c1C[C@H](c1c(F)c(F)cc(F)c1F)C2)NCC1CC1 [Example 203, (R)—N-(cyclopropylmethyl)-3-(6-(2,3,5,6-tetrafluorophenyl)-3-thioxo-2,5,6,7-tetrahydro-3H-pyrrolo[1,2-c]imidazol-1-yl)propanamide] | 95.8 % of control | 75.8 % of control |  | 
